Key:
Experiment in all cases: standardised AUC of viability dose-response curve (72 h) (fraction (0-1)); higher = less growth inhibition (more resistant)
HS729 = system: HS729
Summary of the method: (§1)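 After 72 h with 2.5 µl of compound (compound-plate series 10 mM to 0.0002 mM), triplicate wells of sarcoma cell lines in 384-well plates were read with ATPLite, with viability scaled 1 (full) to 0 (none) and fitted with a four-parameter log-logistic model. The values give the standardised area under the dose-response curve in log-dose space from a modified drexplorer computeAUC. A value of 1 means no response and 0 means full response.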

HT1080 = system: HT1080
Summary of the method: as §1

SYO-1 = system: SYO-1
Summary of the method: as §1

RD = system: RD
Summary of the method: as §1

SW684 = system: SW684
Summary of the method: as §1

KHOS-240S = system: KHOS-240S
Summary of the method: as §1

SW872 = system: SW872
Summary of the method: as §1

SW982 = system: SW982
Summary of the method: as §1

A204 = system: A204
Summary of the method: as §1

VA-ES-BJ = system: VA-ES-BJ
Summary of the method: as §1

SW1353 = system: SW1353
Summary of the method: as §1

SK-LMS-1 = system: SK-LMS-1
Summary of the method: as §1

MES-SA = system: MES-SA
Summary of the method: as §1

RD-ES = system: RD-ES
Summary of the method: as §1

SK-ES-1 = system: SK-ES-1
Summary of the method: as §1

KHOS-NP = system: KHOS-NP
Summary of the method: as §1

G401 = system: G401
Summary of the method: as §1

SMILES | standardised AUC (HS729) | standardised AUC (HT1080) | standardised AUC (SYO-1) | standardised AUC (RD) | standardised AUC (SW684) | standardised AUC (KHOS-240S) | standardised AUC (SW872) | standardised AUC (SW982) | standardised AUC (A204) | standardised AUC (VA-ES-BJ) | standardised AUC (SW1353) | standardised AUC (SK-LMS-1) | standardised AUC (MES-SA) | standardised AUC (RD-ES) | standardised AUC (SK-ES-1) | standardised AUC (KHOS-NP) | standardised AUC (G401)
CC[C@H](Nc1ncnc2[nH]cnc12)c1nc2cccc(F)c2c(=O)n1-c1ccccc1 [IDELALISIB] | 0.905 | 0.99 | 0.949 | 0.982 | 0.761 | 0.968 | 0.937 | 0.971 | 0.939 | 0.934 | 0.897 | 0.919 | 0.957 | 0.968 | 0.963 | 0.978 | 0.931
CCc1cc2c(cc1N1CCC(N3CCOCC3)CC1)C(C)(C)c1[nH]c3cc(C#N)ccc3c1C2=O [ALECTINIB] | 1 | 0.991 | 1 | 0.99 | 1 | 0.967 | 1 | 0.989 | 1 | 0.949 | 1 | 0.985 | 1 | 1 | 0.993 | 0.989 | 0.997
C=CC(=O)Nc1cccc(Oc2nc(Nc3ccc(N4CCN(C)CC4)cc3)nc3ccsc23)c1 [OLMUTINIB] | 0.931 | 0.951 | 0.923 | 0.951 | 0.899 | 0.954 | 0.964 | 0.907 | 0.98 | 0.939 | 0.918 | 0.927 | 0.945 | 0.982 | 0.936 | 0.993 | 0.964
Cc1cc(C)c(/C=C2\C(=O)Nc3ccccc32)[nH]1 [SEMAXANIB] | 0.938 | 0.983 | 0.857 | 0.993 | 0.939 | 0.939 | 0.993 | 0.936 | 0.888 | 0.947 | 0.979 | 0.954 | 0.976 | 0.968 | 0.978 | 0.98 | 0.983
C[C@@H]1CCN(C(=O)CC#N)C[C@@H]1N(C)c1ncnc2[nH]ccc12 [TOFACITINIB] | 0.876 | 0.982 | 0.925 | 1 | 0.967 | 0.976 | 0.932 | 0.993 | 0.972 | 0.958 | 0.942 | 0.978 | 0.989 | 1 | 0.989 | 0.982 | 0.994
Cn1cc(-c2cc3c(N4CCN(c5ncc([C@@](C)(N)c6ccc(F)cc6)cn5)CC4)ncnn3c2)cn1 [AVAPRITINIB] | 0.941 | 0.971 | 0.745 | 0.978 | 0.977 | 0.927 | 0.946 | 0.948 | 0.727 | 0.972 | 0.927 | 0.954 | 0.937 | 0.956 | 0.953 | 0.917 | 0.913
CCCS(=O)(=O)Nc1ccc(F)c(C(=O)c2c[nH]c3ncc(-c4ccc(Cl)cc4)cc23)c1F [VEMURAFENIB] | 0.978 | 0.983 | 0.978 | 0.978 | 0.97 | 0.979 | 0.802 | 0.949 | 0.977 | 0.983 | 0.946 | 0.93 | 0.956 | 0.989 | 0.959 | 0.983 | 0.992
C=CC(=O)N1CCC([C@@H]2CCNc3c(C(N)=O)c(-c4ccc(Oc5ccccc5)cc4)nn32)CC1 [ZANUBRUTINIB] | 0.964 | 0.987 | 0.974 | 0.966 | 0.97 | 0.976 | 0.941 | 0.941 | 0.957 | 0.973 | 0.934 | 1 | 0.981 | 0.974 | 0.977 | 1 | 0.977
CCN1CCN(Cc2ccc(Nc3ncc(F)c(-c4cc(F)c5nc(C)n(C(C)C)c5c4)n3)nc2)CC1 [ABEMACICLIB] | 0.966 | 0.993 | 0.715 | 0.97 | 0.901 | 0.856 | 0.872 | 0.734 | 0.746 | 0.804 | 0.88 | 0.938 | 0.805 | 0.734 | 0.631 | 0.95 | 0.855
C[C@@H](c1ccc2nccn2c1)n1nnc2ncc(-c3cnn(C)c3)nc21 [VOLITINIB] | 0.998 | 0.982 | 0.998 | 0.988 | 0.986 | 1 | 0.992 | 0.993 | 0.974 | 0.883 | 0.991 | 0.725 | 0.994 | 0.993 | 0.996 | 0.981 | 0.992
CN1CCC(COc2cnc(-c3cccc(Cn4nc(-c5cccc(C#N)c5)ccc4=O)c3)nc2)CC1 [TEPOTINIB] | 0.928 | 0.972 | 0.945 | 0.998 | 0.983 | 0.963 | 0.972 | 0.985 | 0.985 | 0.898 | 0.987 | 0.732 | 0.98 | 0.979 | 0.97 | 0.954 | 0.978
COc1cccc2c1C(=O)c1c(O)c3c(c(O)c1C2=O)C[C@@](O)(C(=O)CO)C[C@@H]3O[C@H]1C[C@H](N)[C@H](O)[C@H](C)O1 [DOXORUBICIN] | 0.638 | 0.6 | 0.47 | 0.609 | 0.796 | 0.588 | 0.655 | 0.537 | 0.532 | 0.574 | 0.669 | 0.672 | 0.496 | 0.472 | 0.439 | 0.694 | 0.577
CN1CCN(c2ccc3nc(-c4c(N)c5c(F)cccc5[nH]c4=O)[nH]c3c2)CC1 [DOVITINIB] | 0.821 | 0.906 | 0.717 | 0.904 | 0.902 | 0.81 | 0.823 | 0.792 | 0.748 | 0.865 | 0.86 | 0.904 | 0.81 | 0.82 | 0.749 | 0.917 | 0.833
Cn1cnc2c(F)c(Nc3ccc(Br)cc3F)c(C(=O)NOCCO)cc21 [BINIMETINIB] | 0.887 | 0.756 | 0.922 | 0.736 | 0.917 | 0.89 | 0.741 | 0.89 | 0.936 | 0.895 | 0.838 | 0.727 | 0.905 | 0.978 | 0.933 | 0.773 | 0.869
C=CC(=O)N1CCC[C@@H](n2nc(-c3ccc(Oc4ccccc4)cc3)c3c(N)ncnc32)C1 [IBRUTINIB] | 0.941 | 1 | 0.892 | 0.997 | 0.997 | 0.954 | 0.934 | 0.992 | 0.967 | 0.995 | 0.85 | 0.978 | 0.948 | 0.994 | 0.991 | 0.966 | 0.973
C[C@]1(O)C[C@@H](c2nc(-c3ccc4ccc(-c5ccccc5)nc4c3)c3c(N)nccn32)C1 [LINSITINIB] | 0.776 | 0.954 | 0.876 | 0.836 | 0.965 | 0.915 | 0.936 | 0.9 | 0.922 | 0.936 | 0.979 | 0.973 | 0.952 | 0.73 | 0.708 | 0.973 | 0.817
COc1cc2/c(=N/c3ccc(Br)cc3F)nc[nH]c2cc1OCC1CCN(C)CC1 [VANDETANIB] | 0.921 | 0.968 | 0.757 | 0.852 | 0.954 | 0.879 | 0.886 | 0.836 | 0.843 | 0.955 | 0.906 | 0.894 | 0.912 | 0.911 | 0.853 | 0.961 | 0.925
CN[C@@H]1C[C@H]2O[C@@](C)([C@@H]1OC)n1c3ccccc3c3c4c(c5c6ccccc6n2c5c31)C(=O)NC4 [STAUROSPORINE] | 0.409 | 0.313 | 0.288 | 0.343 | 0.427 | 0.284 | 0.337 | 0.25 | 0.309 | 0.346 | 0.294 | 0.376 | 0.435 | 0.435 | 0.398 | 0.369 | 0.331
